Earlier results, collected in patent US20230364242A1, “WATER-SOLUBLE COMPLEX CONTAINING BETA BLOCKER AND LECITHIN” (NISSAN CHEMICAL CORPORATION, priority 2020, published 2023).

Conditions: literature reports

## CC(C)NCC(O)COc1cccc2ccccc12 (stereo not shown) [propranolol]
  photolysis: decomposition particularly proceeds in an aqueous solution
